According to patent publication US9399649B2, “Compounds for treating spinal muscular atrophy” (PTC Therapeutics Inc., priority 2012, dated 2016):

Key:
Smn protein [1] = test: Smn protein assay in human motor neurons; format: cell-based; conditions: human motor neurons derived from SMA iPS cells, 72 hours, increasing concentrations, FIG. 10
Description: Smn immunofluorescent confocal microscopy is used to quantify the level of Smn protein in human motor neurons treated with test compounds.
Human motor neurons derived from SMA iPS cells (Ebert et al., Nature, 2009, […]; and, Rubin et al., BMC Biology, 2011, 9:42) are treated with test compound at various concentrations for 72 hours. The level of Smn protein in the cell nucleus is quantified using Smn immunostaining and confocal fluorescence microscopy essentially as described in Makhortova et al., Nature Chemical Biology, 2011, 7:544. The level of Smn protein in compound-treated samples is normalized to that in vehicle-treated samples and plotted as a function of the compound concentration.

Smn protein [2] = test: Smn protein assay in tissues of adult C/C-allele SMA mice; format: in vivo; conditions: 10 mg/kg BID orally for 10 days, brain, spinal cord, muscle and liver, relative to vehicle group, FIG. 11
Description: This Smn protein assay compares tissues from test compound treated mice with those from DMSO vehicle treated mice to determine the increase in levels of Smn protein produced from the human SMN2 gene.
The tissue samples in Safe-Lock tubes are weighed and the volume of RIPA buffer containing the protease inhibitor cocktail is added based on the weight to volume ratios for each type of tissue: Brain (50 mgmL), Muscle (50 mgmL) and Spinal Cord (25 mgmL).
Tissues are homogenized using the TissueLyzer by bead milling. 5 mm stainless steel beads are added to the sample and shaken vigorously for 5 minutes at 30 Hz in the TissueLyzer. […] Fluorescence for each well of the plate at 665 nm and 620 nm is measured on an EnVision multilabel plate reader (Perkin-Elmer). The total protein in the tissue homogenate is measured using the BCA assay according to the manufacturer's protocol.
The normalized fluorescence signal is calculated for each sample, Blank and vehicle control well by dividing the signal at 665 nm by the signal at 620 nm. Normalizing the signal accounts for possible fluorescence quenching due to the matrix effect of the tissue homogenate. […] The ΔF value for each tissue sample well is divided by the total protein quantity (determined using the BCA assay) for that tissue sample. […]

[3] = tested on: SMA Δ7 homozygous knockout mice; test: Survival of neonatal Δ7 SMA mice; format: in vivo; conditions: IP QD PND 3 to PND 23, then orally BID from PND 24 until study end, FIG. 15
Description: The change in the number of surviving mice over time is used to determine whether treatment with a test compound improves survival.
SMA Δ7 homozygous knockout mice are dosed intraperitoneally (IP) with test compound or vehicle (100% DMSO) QD from PND 3 until the dose regimen is switched to an oral dose BID in 0.5% hydroxypropylmethyl cellulose (HPMC) with 0.1% Tween-80 at a dose 3.16-fold higher than the dose used for IP and later switched to an oral dose QD in 0.5% hydroxypropylmethyl cellulose (HPMC) with 0.1% Tween-80 at a dose 6.32-fold higher than the dose used for IP. The number of surviving mice in each group is recorded every day and plotted as a percent of total number of mice. Tissues of SMA Δ7 and age-matched heterozygous mice are collected for the measurement of Smn protein levels and processed as detailed in Example 10. The total protein normalized Smn protein levels measured in the tissues are plotted as a percent of those in the age-matched heterozygous mice tissues, with the Smn level in heterozygous mice set to 100 percent. The level of Smn protein in the test compound treated mice tissue relative to that in heterozygous mice tissue is indicated as a percent value above each bar in the graph.

SMILES	Smn protein in the nucleus (Smn protein [1])	total protein normalized Smn level in tissues (Smn protein [2])	survival [3]
Cc1cn2cc(-c3cc4ccc(N5CCN(C)CC5)cc4c(=O)o3)nc2c(C)n1 [Cpd 65, 3-(6,8-dimethylimidazo[1,2-a]pyrazin-2-yl)-7-(4-methylpiperazin-1-yl)-1H-isochromen-1-one]	progressively more Smn protein in the nucleus	increased in brain, spinal cord, muscle and liver tissues	improved compared to vehicle treated mice
Cc1cn2cc(-c3cc4ccc(N5CCN6CCC[C@H]6C5)cc4c(=O)o3)nc2c(C)n1 [Cpd 69, 3-(6,8-dimethylimidazo[1,2-a]pyrazin-2-yl)-7-[(8aS)-hexahydropyrrolo[1,2-a]pyrazin-2(1H)-yl]-1H-isochromen-1-one]	progressively more Smn protein in the nucleus	increased in brain, spinal cord, muscle and liver tissues	improved compared to vehicle treated mice
